These results are taken from patent US9365522B2, “Pyrazole amide derivative” (AMGEN INC., priority 2015, dated 2016).

A value given as a limit tells only on which side of the number the result lay.

The experiment has as its target T1, ligand binding domain of human ROR gamma (Homo sapiens, UniProt P51449).
T1 construct: NM_001001523; expressed in transfected cells; host or cells: HEK293T
T1 sequence (P51449 247-497 isoform P51449-2): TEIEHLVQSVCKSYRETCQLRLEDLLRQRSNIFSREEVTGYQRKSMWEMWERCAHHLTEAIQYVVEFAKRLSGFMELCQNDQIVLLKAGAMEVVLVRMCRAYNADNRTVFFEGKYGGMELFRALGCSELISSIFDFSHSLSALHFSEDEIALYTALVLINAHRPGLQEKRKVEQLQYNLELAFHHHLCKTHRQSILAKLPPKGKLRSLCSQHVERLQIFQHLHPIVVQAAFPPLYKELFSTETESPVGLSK
Kind of experiment: ROR gamma reporter gene assay (GAL4-RORγ LBD luciferase, Dual-Glo). The experiment is classed as cell-based. Conditions: HEK293T cells transfected with pM-ROR gamma, 8 concentrations 3.5 nM to 10.5 μM, 24 h incubation; read-out: result (pIC50, inhibition of RORγ transcriptional activity) (converted). How it is done:
Luciferase reporter gene assay was used to assess inhibition of RORγ transcriptional activity.
ROR gamma expression vector was prepared by inserting the ligand binding domain of human ROR gamma (amino acid 247-497 of Genbank Accession NO. NM_001001523) adjacent to the yeast GAL4 transcription factor DNA binding domain in the expression vector pM (Clontech). The resulting expression vector pM-ROR gamma was used in transfection experiments together with the pGL4 luciferase reporter plasmid (Promega) containing five copies of the UAS GAL4 recognition site and pRL-CMV plasmids (Promega) containing the constitutive CMV promoter and the renilla luciferase.
For preparing transfection reagent/DNA mixture, 1 μg pM-ROR gamma, 1 μg pGL4 5×UAS, 625 pg pRL-CMV and 6.25 μL FuGENE™ HD transfection reagent (Promega) were mixed in 0.25 mL OPTI-MEM™ (Life technologies) at room temperature. At the same time, Negative control DNA mixture was prepared by using 1 μg pM empty vector instead of pM-ROR gamma plasmid. After a fifteen minute incubation, 0.25 mL of transfection reagent/DNA mixture was added to 1,000,000 of HEK293T cells (ATCC) in 5 mL of OPTI-MEM™ containing 10% Charcoal Stripped Fetal Bovine Serum.
Transfected cells were seeded onto 384 well plate (10 μL/well) and the 7.5 nL of test compounds were added to the wells in 8 concentrations ranging from 3.5 nM to 10.5 μM. The compounds were dissolved in 100% DMSO and the final concentration of DMSO in the assay was 0.075%.
After 24 h of incubation at 37° C., 5% CO2 in a cell culture incubator, the Dual-Glo™ Luciferase Assay System was used to detect activity according to the manufacturer's instructions (Promega, Cat. No.: E2920).
Data was plotted and pIC50 values were calculated using the XLfit program (ID Business Solutions Ltd.).
On to `CC(C)CCN(CC(=O)c1c(Cl)cncc1Cl)C(=O)c1cnn([C@H]2CC[C@H](C(=O)O)CC2)c1C(F)(F)F` [Example 32, trans-4-(4-((2-(3,5-dichloropyridin-4-yl)-2-oxoethyl)(isopentyl)carbamoyl)-5-(trifluorornethyl)-1H-pyrazol-1-yl)cyclohexanecarboxylic acid], for which the IC50 was 81300 pM.
The value for `CC(C)(C)CCN(CC(=O)c1c(Cl)cncc1Cl)C(=O)c1cnn([C@H]2CC[C@H](C(=O)O)CC2)c1C(F)(F)F` [Example 33, trans-4-(4-((2-(3,5-dichloropyridin-4-yl)-2-oxoethyl)(3,3-dimethylbutyl)carbamoyl)-5-(trifluorornethyl)-1H-pyrazol-1-yl)cyclohexanecarboxylic acid] was 112000 pM; that for `O=C(CN(CCC1CC1)C(=O)c1cnn([C@H]2CC[C@H](C(=O)O)CC2)c1C(F)(F)F)c1c(Cl)cncc1Cl` [Example 34, trans-4-(4-((2-cyclopropylethyl)(2-(3,5-dichloropyridin-4-yl)-2-oxoethyl)carbamoyl)-5-(trifluoromethyl)-1H-pyrazol-1-yl)cyclohexanecarboxyic acid] was 1.35e+06 pM.
The value for `CC(C)=CCN(CC(=O)c1c(Cl)cncc1Cl)C(=O)c1cnn([C@H]2CC[C@H](C(=O)O)CC2)c1C(F)(F)F` [Example 35, trans-4-(4-((2-(3,5-dichloropyridin-4-yl)-2-oxoethyl)(3-methylbut-2-en-1-yl)carbamoyl)-5-(trifluoromethyl)-1H-pyrazol-1-yl)cyclohexanecarboxyic acid] was 112000 pM.
The value for `CC1(C)CCC(CN(CC(=O)c2c(Cl)cncc2Cl)C(=O)c2cnn([C@H]3CC[C@H](C(=O)O)CC3)c2C(F)(F)F)CC1` [Example 36, trans-4-(4-((2-(3,5-dichloropyridin-4-yl)-2-oxoethyl)((4,4-dimethylcyclohexyl)methyl)carbamoyl)-5-(trifluorornethyl)-1H-pyrazol-1-yl)cyclohexanecarboxylic acid] was 117000 pM; that for `O=C(CN(CC1CCC2(CC1)CC2)C(=O)c1cnn([C@H]2CC[C@H](C(=O)O)CC2)c1C(F)(F)F)c1c(Cl)cncc1Cl` [Example 37, trans-4-(4-((2-(3,5-dichloropyridin-4-yl)-2-oxoethyl)(spiro[2.5]octan-6-ylmethyl)carbamoyl)-5-(trifluoromethyl)-1H-pyrazol-1-yl)cyclohexanecarboxylic acid] was 18600 pM; that for `O=C(CN(C[C@@H]1CCOC1)C(=O)c1cnn([C@H]2CC[C@H](C(=O)O)CC2)c1C(F)(F)F)c1c(Cl)cncc1Cl` [Example 38, trans-4-(4-((2-(3,5-dichloropyridin-4-yl)-2-oxoethyl)(((S)-tetrahydrofuran-3-yl)methyl)carbamoyl)-5-(trifluoromethyl)-1H-pyrazol-1-yl)cyclohexanecarboxylic acid] was 1.55e+06 pM.
For the compound `O=C(CN(C[C@H]1CCOC1)C(=O)c1cnn([C@H]2CC[C@H](C(=O)O)CC2)c1C(F)(F)F)c1c(Cl)cncc1Cl` [Example 39, trans-4-(4-((2-(3,5-dichloropyridin-4-yl)-2-oxoethyl)(((R)-tetrahydrofuran-3-yl)methyl)carbamoyl)-5-(trifluoromethyl)-1H-pyrazol-1-yl)cyclohexanecarboxylic acid], the IC50 was more than 1e+07 pM.
The value for `O=C(CN(Cc1ccccc1)C(=O)c1cnn([C@H]2CC[C@H](C(=O)O)CC2)c1C(F)(F)F)c1c(Cl)cncc1Cl` [Example 40, trans-4-(4-(benzyl(2-(3,5-dichloropyridin-4-yl)-2-oxoethyl)carbamoyl)-5-(trifluoromethyl)-1H-pyrazol-1-yl)cyclohexanecarboxylic acid] was 56200 pM; that for `O=C(CN(Cc1ccc(Cl)cc1)C(=O)c1cnn([C@H]2CC[C@H](C(=O)O)CC2)c1C(F)(F)F)c1c(Cl)cncc1Cl` [Example 41, trans-4-(4-((4-chlorobenzyl)(2-(3,5-dichloropyridin-4-yl)-2-oxoethyl)carbamoyl)-5-(trifluoromethyl)-1H-pyrazol-1-yl)cyclohexanecarboxylic acid] was 29500 pM.
The figure for `O=C(CN(Cc1cc(F)cc(F)c1)C(=O)c1cnn([C@H]2CC[C@H](C(=O)O)CC2)c1C(F)(F)F)c1c(Cl)cncc1Cl` [Example 42, trans-4-(4-((2-(3,5-dichloropyridin-4-yl)-2-oxoethyl)(3,5-difluorobenzyl)carbamoyl)-5-(trifluoromethyl)-1H-pyrazol-1-yl)cyclohexanecarboxylic acid] is 44700 pM; for `O=C(CN(Cc1cccc(F)c1F)C(=O)c1cnn([C@H]2CC[C@H](C(=O)O)CC2)c1C(F)(F)F)c1c(Cl)cncc1Cl` [Example 43, trans-4-(4-((2-(3,5-dichloropyridin-4-yl)-2-oxoethyl)(2,3-difluorobenzyl)carbamoyl)-5-(trifluoromethyl)-1H-pyrazol-1-yl)cyclohexanecarboxylic acid] it is 33900 pM; for `O=C(CN(Cc1ccc(F)c(F)c1)C(=O)c1cnn([C@H]2CC[C@H](C(=O)O)CC2)c1C(F)(F)F)c1c(Cl)cncc1Cl` [Example 44, trans-4-(4-((2-(3,5-dichloropyridin-4-yl)-2-oxoethyl)(3,4-difluorobenzyl)carbamoyl)-5-(trifluorornethyl)-1H-pyrazol-1-yl)cyclohexanecarboxylic acid] it is 14800 pM.
The figure for `O=C(CN(Cc1cc(F)ccc1F)C(=O)c1cnn([C@H]2CC[C@H](C(=O)O)CC2)c1C(F)(F)F)c1c(Cl)cncc1Cl` [Example 45, trans-4-(4-((2-(3,5-dichloropyridin-4-yl)-2-oxoethyl)(2,5-difluorobenzyl)carbamoyl)-5-(trifluorornethyl)-1H-pyrazol-1-yl)cyclohexanecarboxylic acid] is 58900 pM; for `O=C(CN(Cc1ccco1)C(=O)c1cnn([C@H]2CC[C@H](C(=O)O)CC2)c1C(F)(F)F)c1c(Cl)cncc1Cl` [Example 46, trans-4-(4-((2-(3,5-dichloropyridin-4-yl)-2-oxoethyl)(furan-2-ylmethyl)carbamoyl)-5-(trifluoromethyl)-1H-pyrazol-1-yl)cyclohexanecarboxylic acid] it is 398000 pM; for `O=C(CN(Cc1ccoc1)C(=O)c1cnn([C@H]2CC[C@H](C(=O)O)CC2)c1C(F)(F)F)c1c(Cl)cncc1Cl` [Example 47, trans-4-(4-((2-(3,5-dichloropyridin-4-yl)-2-oxoethyl)(furan-3-ylmethyl)carbamoyl)-5-(trifluoromethyl)-1H-pyrazol-1-yl)cyclohexanecarboxylic acid] it is 102000 pM.
As for `O=C(CN(Cc1cnccn1)C(=O)c1cnn([C@H]2CC[C@H](C(=O)O)CC2)c1C(F)(F)F)c1c(Cl)cncc1Cl` [Example 48, trans-4-(4-((2-(3,5-dichloropyridin-4-yl)-2-oxoethyl)(pyrazin-2-ylmethyl)carbarnoyl)-5-(trifluoromethyl)-1H-pyrazol-1-yl)cyclohexanecarboxylic acid], the IC50 was more than 1e+07 pM.
